Source: patent US10829458B2 (Araxes Pharma LLC, priority 2015, dated 2020)

Biological target: T1, KRAS G12C 1-169, his-tagged protein, GDP-loaded (Homo sapiens, UniProt P01116, G12C)
T1 construct: KRAS G12C 1-169, his-tagged protein, GDP-loaded
Test: Biochemical assay: covalent modification of KRAS G12C measured by mass spectrometry (RapidFire/TOF or Q-Exactive)
Conditions: covalent binding to KRAS G12C; compounds of structure (I)
Method in brief: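 GDP-loaded his-tagged KRAS G12C 1-169 at 2 μM in 20 mM Hepes, 150 mM NaCl, 1 mM MgCl2 incubated at room temperature with compound (10, 30 or 100 μM final, 2% DMSO) for 30 min, 2 h or 24 h, then quenched with formic acid. Intact-protein LC-MS (RapidFire/TOF or Q-Exactive) with deconvolution quantified modified versus unmodified protein.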

Row | SMILES | Binding %
1 | C=CC(=O)N1CCN(c2nc(N3CC4(COC4)C3)nc3c(F)c(-c4c(O)cccc4F)c(Cl)cc23)CC1 [Example I-148, 1-(4-(6-chloro-8-fluoro-7-(2-fluoro-6-hydroxyphenyl)-2-(2-oxa-6-azaspiro[3.3]heptan-6-yl)quinazolin-4-yl)piperazin-1-yl) prop-2-en-1-one] | +++ (+++ indicates binding activity greater than 90%)
2 | C=CC(=O)N1CCN(c2nc(N3CC(C)(N(C)C)C3)nc3c(F)c(-c4c(O)cccc4F)c(Cl)cc23)CC1 [Example I-149, 1-(4-(6-chloro-2-(3-(dimethyl-amino)-3-methyl-azetidin-1-yl)-8-fluoro-7-(2-fluoro-6-hydroxyphenyl)quinazolin-4-yl)piperazin-1-yl) prop-2-en-1-one] | +++ (+++ indicates binding activity greater than 90%)
3 | C=CC(=O)N1CCN(c2nc(NCC3CCN(C4CC4)CC3)nc3c(F)c(-c4c(O)cccc4F)c(Cl)cc23)CC1 [Example I-150, 1-(4-(6-chloro-2-((1-cyclopropyl-piperidin-4-yl)methylamino)-8-fluoro-7-(2-fluoro-6-hydroxyphenyl)quinazolin-4-yl)piperazin-1-yl) prop-2-en-1-one] | +++ (+++ indicates binding activity greater than 90%)
4 | C=CC(=O)N1CCN(c2nc(NCCN(CC)CC)nc3c(F)c(-c4c(O)cccc4F)c(Cl)cc23)CC1 [Example I-151, l-(4-(6-chloro-2-(2-(diethyl-amino)ethylamino)-8-fluoro-7-(2-fluoro-6-hydroxyphenyl)quinazolin-4-yl)piperazin-1-yl) prop-2-en-1-one] | +++ (+++ indicates binding activity greater than 90%)
5 | C=CC(=O)N1CCN(c2nc(N3CC(COC)C3)nc3c(F)c(-c4c(C)ccc5[nH]ncc45)c(Cl)cc23)CC1 [Example I-152, 1-(4-(6-chloro-8-fluoro-2-(3-(methoxy-methyl)azetidin-1-yl)-7-(5-methyl-1H-indazol-4-yl)quinazolin-4-yl)piperazin-1-yl) prop-2-en-1-one] | +++ (+++ indicates binding activity greater than 90%)
6 | C=CC(=O)N1CCN(c2nc(NCCc3ccccn3)nc3c(F)c(-c4c(O)cccc4F)c(Cl)cc23)CC1 [Example I-153, 1-(4-(6-chloro-8-fluoro-7-(2-fluoro-6-hydroxyphenyl)-2-(2-(pyridin-2-yl)ethylamino)quinazolin-4-yl)piperazin-1-yl) prop-2-en-1-one] | +++ (+++ indicates binding activity greater than 90%)
7 | C=CC(=O)N1CCN(c2nc(OC)nc3c(OC)c(-c4c(O)cccc4F)c(Cl)cc23)CC1 [Example I-154, 1-(4-(6-chloro-7-(2-fluoro-6-hydroxyphenyl)-2,8-dimethoxy-quinazolin-4-yl)piperazin-1-yl) prop-2-en-1-one] | +++ (+++ indicates binding activity greater than 90%)
8 | C=CC(=O)N1CCN(c2nc(N3CC4(CCOC4)C3)nc3c(F)c(-c4c(O)cccc4F)c(Cl)cc23)CC1 [Example I-155, 1-(4-(6-chloro-8-fluoro-7-(2-fluoro-6-hydroxyphenyl)-2-(6-oxa-2-azaspiro[3,4]octan-2-yl)quinazolin-4-yl)piperazin-1-yl) prop-2-en-1-one] | +++ (+++ indicates binding activity greater than 90%)
9 | C=CC(=O)N1CCN(c2nc(N3CC4(CCOC4)C3)nc3c(F)c(-c4c(C)ccc5[nH]ncc45)c(Cl)cc23)CC1 [Example I-156, 1-(4-(6-chloro-8-fluoro-7-(5-methyl-1H-indazol-4-yl)-2-(6-oxa-2-azaspiro[3,4]octan-2-yl)quinazolin-4-yl)piperazin-1-yl) prop-2-en-1-one] | +++ (+++ indicates binding activity greater than 90%)
10 | C=CC(=O)N1CCN(c2nc(N3CC4(CN(C)C4)C3)nc3c(F)c(-c4c(C)ccc5[nH]ncc45)c(Cl)cc23)CC1 [Example I-157, 1-(4-(6-chloro-8-fluoro-7-(5-methyl-1H-indazol-4-yl)-2-(6-methyl-2,6-diazaspiro [3.3]heptan-2-yl)quinazolin-4-yl)piperazin-1-yl) prop-2-en-1-one] | +++ (+++ indicates binding activity greater than 90%)
11 | C=CC(=O)N1CCN(c2nc(OCC3CN(c4ncccc4F)C3)nc3c(F)c(-c4c(C)ccc5[nH]ncc45)c(Cl)cc23)CC1 [Example I-158, 1-(4-(6-chloro-8-fluoro-2-((1-(3-fluoropyridin-2-yl)azetidin-3-yl)methoxy)-7-(5-methyl-1H-indazol-4-yl)quinazolin-4-yl)piperazin-1-yl) prop-2-en-1-one] | +++ (+++ indicates binding activity greater than 90%)
12 | C=CC(=O)N1CCN(c2nc(N3CC(CN(C)C)C3)nc3c(F)c(-c4c(C)ccc5[nH]ncc45)c(Cl)cc23)CC1 [Example I-159, 1-(4-(6-chloro-2-(3-((dimethyl-amino)methyl)azetidin-1-yl)-8-fluoro-7-(5-methyl-1H-indazol-4-yl)quinazolin-4-yl)piperazin-1-yl) prop-2-en-1-one] | +++ (+++ indicates binding activity greater than 90%)
13 | C=CC(=O)N1CCN(c2nc(NCC3CCN(C4CC4)CC3)nc3c(F)c(-c4c(C)ccc5[nH]ncc45)c(Cl)cc23)CC1 [Example I-160, 1-(4-(6-chloro-2-((1-cyclo-propyl-piperidin-4-yl)methylamino)-8-fluoro-7-(5-methyl-1H-indazol-4-yl)quinazolin-4-yl)piperazin-l-yl) prop-2-en-1-one] | +++ (+++ indicates binding activity greater than 90%)
14 | C=CC(=O)N1CCN(c2nc(NCCN(CC)CC)nc3c(F)c(-c4c(C)ccc5[nH]ncc45)c(Cl)cc23)CC1 [Example I-161, 1-(4-(6-chloro-2-(2-(diethyl-amino)ethylamino)-8-fluoro-7-(5-methyl-1H-indazol-4-yl)quinazolin-4-yl)piperazin-1-yl) prop-2-en-1-one] | +++ (+++ indicates binding activity greater than 90%)
15 | C=CC(=O)N1CCN(c2nc(N3CC(N4CCC4)C3)nc3c(F)c(-c4c(O)cccc4F)c(Cl)cc23)CC1 [Example I-162, 1-(4-(2-([1,3′-biazetidin]-1′-yl)-6-chloro-8-fluoro-7-(2-fluoro-6-hydroxyphenyl)quinazolin-4-yl)piperazin-1-yl) prop-2-en-1-one] | + (+ indicates binding activity up to 50%)
16 | C=CC(=O)N1CCN(c2nc(OCC3OCCO3)nc3c(F)c(-c4c(O)cccc4F)c(Cl)cc23)CC1 [Example I-163, 1-(4-(2-((1,3-dioxolan-2-yl)methoxy)-6-chloro-8-fluoro-7-(2-fluoro-6-hydroxyphenyl)quinazolin-4-yl)piperazin-1-yl) prop-2-en-1-one] | +++ (+++ indicates binding activity greater than 90%)
17 | C=CC(=O)N1CCN(c2nc(OCC3OCCO3)nc3c(F)c(-c4c(C)ccc5[nH]ncc45)c(Cl)cc23)CC1 [Example I-164, 1-(4-(2-((1,3-dioxolan-2-yl)methoxy)-6-chloro-8-fluoro-7-(5-methyl-1H-indazol-4-yl)quinazolin-4-yl)piperazin-1-yl) prop-2-en-1-one] | ++ (++ indicates binding activity from 50 to 90%)
18 | C=CC(=O)N1CCN(c2nc(NC3CCN(CC#N)CC3)nc3c(F)c(-c4c(C)ccc5[nH]ncc45)c(Cl)cc23)CC1 [Example I-165, 2-(4-((4-(4-acryloyl-piperazin-1-yl)-6-chloro-8-fluoro-7-(5-methyl-1H-indazol-4-yl)quinazolin-2-yl)amino)piperidin-1-yl) acetonitrile] | ++ (++ indicates binding activity from 50 to 90%)
19 | C=CC(=O)N1CCN(c2nc(N3CC(N4CCN(C5CC5)CC4)C3)nc3c(F)c(-c4c(O)cccc4F)c(Cl)cc23)CC1 [Example I-166, 1-(4-(6-chloro-2-(3-(4-cyclopropyl-piperazin-1-yl)azetidin-1-yl)-8-fluoro-7-(2-fluoro-6-hydroxyphenyl)quinazolin-4-yl)piperazin-1-yl) prop-2-en-1-one] | ++ (++ indicates binding activity from 50 to 90%)
20 | C=CC(=O)N1CCN(c2nc(NC3CCN(CC(F)F)CC3)nc3c(F)c(-c4c(C)ccc5[nH]ncc45)c(Cl)cc23)CC1 [Example I-167, 1-(4-(6-chloro-2-((1-(2,2-difluoroethyl)piperidin-4-yl)amino)-8-fluoro-7-(5-methyl-1H-indazol-4-yl)quinazolin-4-yl)piperazin-1-yl) prop-2-en-1-one] | ++ (++ indicates binding activity from 50 to 90%)
21 | C=CC(=O)N1CCN(c2nc(OCCN3CCN(C4CC4)CC3)nc3c(F)c(-c4c(O)cccc4F)c(Cl)cc23)CC1 [Example I-168, 1-(4-(6-chloro-2-(2-(4-cyclopropyl-piperazin-1-yl)ethoxy)-8-fluoro-7-(2-fluoro-6-hydroxyphenyl)quinazolin-4-yl)piperazin-1-yl) prop-2-en-1-one] | +++ (+++ indicates binding activity greater than 90%)
22 | C=CC(=O)N1CCN(c2nc(NCCc3ncccn3)nc3c(F)c(-c4c(C)ccc5[nH]ncc45)c(Cl)cc23)CC1 [Example I-169, 1-(4-(6-chloro-8-fluoro-7-(5-methyl-1H-indazol-4-yl)-2-((2-(pyrimidin-2-yl)ethyl)amino)quinazolin-4-yl)piperazin-1-yl) prop-2-en-1-one] | ++ (++ indicates binding activity from 50 to 90%)
23 | C=CC(=O)N1CCN(c2nc(OCC3CN(c4ncccn4)C3)nc3c(F)c(-c4c(C)ccc5[nH]ncc45)c(Cl)cc23)CC1 [Example I-170, 1-(4-(6-chloro-8-fluoro-7-(5-methyl-1H-indazol-4-yl)-2-((1-(pyrimidin-2-yl)azetidin-3-yl)methoxy)quinazolin-4-yl)piperazin-1-yl) prop-2-en-1-one] | ++ (++ indicates binding activity from 50 to 90%)
24 | C=CC(=O)N1CCN(c2nc(NCCc3ncccn3)nc3c(F)c(-c4c(O)cccc4F)c(Cl)cc23)CC1 [Example I-171, 1-(4-(6-chloro-8-fluoro-7-(2-fluoro-6-hydroxyphenyl)-2-((2-(pyrimidin-2-yl)ethyl)amino)quinazolin-4-yl)piperazin-1-yl) prop-2-en-1-one] | ++ (++ indicates binding activity from 50 to 90%)
